Broadly, the IC50 is the concentration needed to halve the response being measured. By EC50 is commonly meant the concentration giving half of the maximal effect.

Among the data in patent US11447504B2, “Macrocyclic chlorine substituted indole derivatives” (Bayer Aktiengesellschaft, priority 2017, dated 2022) are IC50 and EC50 values, retold here.

Structures can show the parent of a compound that is named as a salt. Where two headings read alike, the source gives them in different places.

The target of one data set is MCL-1 (Homo sapiens (Human), UniProt Q07820, K194A/K197A/R201A). In words: Protein-protein interaction assay MCL-1/Noxa BH3 peptide (MCL-1 Assay, TR-FRET). The conditions noted are these: read-out: MCL-1 Assay IC50 (median). It is filed as binding. How it is done: The dose-dependent inhibition by the compounds described in this invention of the interaction between MCL-1 and the BH3 domain of Noxa (both human) was determined using a steady state binding competition assay with time-resolved fluorescence energy transfer (TR-FRET) readout. […] The MBP-MCL-1 was purchased from Beryllium (Bedford, Mass., USA). The expression and purification of this protein construct has been described elsewhere (DOI:10.1371/journal.pone.0125010). The Noxa BH3-derived peptide can be obtained from e.g. Biosyntan (Berlin, Germany).
Chain of MCL-1 (Q07820 whole entry K194A/K197A/R201A, looked up, the tested form may be a part): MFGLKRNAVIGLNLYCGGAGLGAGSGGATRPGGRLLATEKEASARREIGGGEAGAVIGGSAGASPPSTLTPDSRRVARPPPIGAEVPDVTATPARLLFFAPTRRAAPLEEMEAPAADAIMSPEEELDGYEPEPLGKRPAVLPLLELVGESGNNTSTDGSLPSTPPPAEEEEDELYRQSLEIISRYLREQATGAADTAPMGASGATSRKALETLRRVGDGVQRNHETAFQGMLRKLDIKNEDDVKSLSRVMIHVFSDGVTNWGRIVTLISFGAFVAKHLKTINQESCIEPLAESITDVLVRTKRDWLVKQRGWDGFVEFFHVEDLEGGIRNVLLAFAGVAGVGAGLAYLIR
For that, 100-fold concentrated DMSO solutions were prepared by serial dilutions (1:3.4) of a 2 mM stock solution in a clear, 384-well microtiter plate (Greiner Bio-One, Frickenhausen, Germany). From there, 50 nl were transferred in a dark test plate (Greiner Bio-One, Frickenhausen, Germany). […] This was followed by a 10-minute incubation step at 22° C. for pre-equilibration of the putative complex between MBP-MCL-1 and the compounds.
The mixture was incubated in the dark for one hour at 22° C. and then overnight at 4° C.
The resulting data (ratio) were normalized, taking 0% inhibition as the mean value of control measurements (usually 32 data points) where all reagents were included. In this case 50 nl DMSO were used instead of compounds. […] IC50 values were determined by regression analysis based on a 4 parameter equation (minimum, maximum, IC50, Hill; Y=Max+(Min−Max)/(1+(X/IC50)^Hill) using the Screener Software (Genedata).
Background: Time-resolved FRET reads energy transfer from a long-lived donor to a nearby acceptor.

Data set [1] relates to SUDHL5. In words: Induction of cytotoxicity (Assay 6), SUDHL5.
Data set [2] relates to SUDHL10. In words: Induction of caspase-3/7 activity (Assay 4), SUDHL10. The class given is cell-based. The conditions noted are these: SUDHL10 cells. In a few lines:
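Luminescent Caspase-Glo 3/7 read-out after a 3 h, 37 °C compound exposure of the DLBCL line SUDHL10. Values are background-corrected using medium-only wells.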

In data set [3] the test system is SUDHL5. Put plainly: Induction of caspase-3/7 activity (Assay 4), SUDHL5. The following applies: SUDHL5 cells. It is filed as cell-based. In short, it runs like this:
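DLBCL cells treated with compounds for 3 hours at 37° C. Caspase-3/7 activity measured by Caspase-Glo 3/7 luminescence, with medium-only background subtracted.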

Data set [4] has as its system SUDHL10. In words: Induction of cytotoxicity (Assay 6), SUDHL10.
The next data set has as its system MV-4-11. In words: Antiproliferation assay 7, MV-4-11. It is filed as cell-based. The following applies: MV-4-11 cells, CellTiter-Glo, read-out: Antiproli MV-4-11 IC50 median. In short, it runs like this: (§1)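 Proliferation was read by CellTiter-Glo luminescence after 72 hours of compound treatment at 37° C. The read was referenced to a parallel plate measured at time zero.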
On the technique in general: In ATP-based viability assays light output follows the ATP content of the culture.

For another data set, the system named is AMO-1. Put plainly: Antiproliferation assay 7, AMO-1. It is filed as cell-based. The following applies: AMO-1 cells, CellTiter-Glo, read-out: Antiproli AMO-1 IC50 median. In short, it runs like this: as §1
In data set [5] the test system is SUDHL5. In words: Antiproliferation assay 7, SUDHL5. The class given is cell-based. The conditions noted are these: SUDHL5 cells, CellTiter-Glo, read-out: Antiproli SUDHL5 IC50 (median). In short, it runs like this:
as §1

The next data set has as its system HMC-1-8. Put plainly: Antiproliferation assay 7, HMC-1-8. The class given is cell-based. The following applies: HMC-1-8 cells, CellTiter-Glo, read-out: Antiproli HMC-1-8 IC50 median. How it is done:
Assessment of the Anti-Proliferative Effect of Compounds in Different Cell Lines
The impact of compounds on the proliferation of different cell lines was assessed using the CellTiter-Glo® Luminescent Cell Viability reagent from Promega (G7573).
In parallel, cells were plated in a reference (day 0) plate for time zero determination.
Rim wells were excluded. The cells were incubated for 72 hours in a humidified incubator at 37° C. The day 0 plate was measured by adding 30 μL/well of CTG solution (CellTiter-Glo® Luminescent Cell Viability reagent, Promega G7573) to time zero wells in the reference plate followed by a 10 minutes incubation and luminescence reading at 0.1 ms. using the PHERAstar FS microplate reader (BMG Labtech).
After 72 hours incubation, the treated plates were measured in the same way as the day 0 plate mentioned above.

The mark [6] stands for this setting: Homo sapiens, SU-DHL-5, 5 h, read-out: Cytotox SUDHL5 IC50 (median), SUDHL5 cells, 5 hours, CellTiter-Glo.
Where [7] appears, read: Homo sapiens, SU-DHL10, 3 h, Caspase-Glo 3/7, read-out: Caspase SUDHL10 EC50 (median).
[8] abbreviates: Homo sapiens, SU-DHL-5, 3 h, Caspase-Glo 3/7, read-out: Caspase SUDHL5 EC50 (median).
Setting [9] is: Homo sapiens, SU-DHL10, 5 h, read-out: Cytotox SUDHL10 IC50 (median), SUDHL10 cells, 5 hours, CellTiter-Glo.
Where [10] appears, read: read-out: Cytotox SUDHL5 IC50 (median), SUDHL5 cells, 5 hours, CellTiter-Glo.
The mark [11] stands for this setting: 3 hours, Caspase-Glo 3/7, read-out: Caspase SUDHL10 EC50 (median).
[12] abbreviates: 3 hours, Caspase-Glo 3/7, read-out: Caspase SUDHL5 EC50 (median).
[13] abbreviates: read-out: Cytotox SUDHL10 IC50 (median), SUDHL10 cells, 5 hours, CellTiter-Glo.

In the case of `Cc1c2c(nn1CCCN1CCN(C)CC1)COCCCCn1c(C(=O)O)c(CCCOc3cccc4ccccc34)c3ccc(Cl)c-2c31` (racemic) [Example 48, (rac)-4-chloro-3-methyl-2-[3-(4-methylpiperazin-1-yl)propyl]-7-{3-[(naphthalen-1-yl)oxy]propyl}-2,10,11,12,13,15-hexahydropyrazolo[4′,3′:9,10][1,6]oxazacycloundecino[8,7,6-hi]indole-8-carboxylic Acid], the IC50 at MCL-1 stood at 1.7 nM; in the data set with SUDHL5 [1] (setting [6]), 590 nM; in the data set with SUDHL10 [4] (setting [9]) it was 1000 nM; in the data set on MV-4-11 (Homo sapiens, MV4-11, 72 h) it was 918 nM; in the data set on AMO-1 (Homo sapiens, AMO1, 72 h) it was 1490 nM; in the data set on SUDHL5 [5] (Homo sapiens, SU-DHL-5, 72 h), 570 nM. The EC50 with SUDHL10 [2] (setting [7]) and in the data set with SUDHL5 [3] (setting [8]) was 590 nM each time.
As to `CCc1c2c(nn1C)N(CCC1CCOCC1)CCCCCn1c(C(=O)O)c(CCCOc3cccc4cc(F)ccc34)c3ccc(Cl)c-2c31` (racemic) [Example 80, (rac)-4-chloro-3-ethyl-7-{3-[(6-fluoronaphthalen-1-yl)oxy]propyl}-2-methyl-15-[2-(oxan-4-yl)ethyl]-10,11,12,13,14,15-hexahydro-2H-pyrazolo[4′,3′:4,5][1,6]diazacycloundecino[3,2,1-hi]indole-8-carboxylic Acid], the IC50 was 2 nM on MCL-1; 500 nM in the data set on SUDHL5 [1] (setting [6]); 4000 nM with HMC-1-8 (72 h); 530 nM in the data set with SUDHL10 [4] (setting [9]); 270 nM in the data set on AMO-1 (Homo sapiens, AMO1, 72 h); 410 nM with SUDHL5 [5] (Homo sapiens, SU-DHL-5, 72 h). The EC50 is 600 nM in the data set with SUDHL10 [2] (setting [7]) and 400 nM with SUDHL5 [3] (setting [8]).
As to `CCc1nn(CCN2CCOCC2)c2c1-c1c(Cl)ccc3c(CCCOc4cccc5ccccc45)c(C(=O)O)n(c13)C/C=C\CN(C)C2` (single isomer, unassigned; enantiomer 1) [Example 43, (11Z)-4-chloro-3-ethyl-14-methyl-1-[2-(morpholin-4-yl)ethyl]-7-{3-[(naphthalen-1-yl)oxy]propyl}-10,13,14,15-tetrahydro-1H-pyrazolo[3′,4′:8,9][1,6]diazacycloundecino[10,11,1-hi]indole-8-carboxylic Acid-Ammonia Salt (Enantiomer 1)], the IC50 in the data set on SUDHL5 [1] (setting [10]) was determined as 700 nM; in the data set with HMC-1-8 (72 h) it was 2060 nM; in the data set on SUDHL10 [4] (setting [13]) it was 1200 nM; in the data set with MV-4-11 (72 hours), 1380 nM; in the data set on AMO-1 (72 hours), 1130 nM; in the data set on SUDHL5 [5] (72 hours) it was 950 nM. Further, the half-maximal effective concentration (EC50) with SUDHL10 [2] (setting [11]) was determined as 1600 nM; in the data set on SUDHL5 [3] (setting [12]), 620 nM.
Consider `CCc1nn(CCN2CCOCC2)c2c1-c1c(Cl)ccc3c(CCCOc4cccc5ccccc45)c(C(=O)O)n(c13)CCCCN(C)C2` (single isomer, unassigned; enantiomer 1) [Example 46, 4-chloro-3-ethyl-14-methyl-1-[2-(morpholin-4-yl)ethyl]-7-{3-[(naphthalen-1-yl)oxy]propyl}-10,11,12,13,14,15-hexahydro-1H-pyrazolo[3′,4′:8,9][1,6]diazacycloundecino[10,11,1-hi]indole-8-carboxylic Acid (Enantiomer 1)], for which the IC50 worked out at 180 nM in the data set on SUDHL5 [1] (setting [10]); 819 nM in the data set with HMC-1-8 (72 h); 300 nM in the data set on SUDHL10 [4] (setting [13]); 490 nM in the data set on MV-4-11 (72 hours); 180 nM in the data set with AMO-1 (72 hours); 200 nM in the data set on SUDHL5 [5] (72 hours). In addition, the values for the EC50 with SUDHL10 [2] (setting [11]) and in the data set on SUDHL5 [3] (setting [12]) were 400 nM and 160 nM, respectively.
Consider `Cc1c2c(nn1C)OCCCCCn1c(C(=O)O)c(CCCOc3cccc4cc(F)ccc34)c3ccc(Cl)c-2c31` (single isomer, unassigned; enantiomer 1) [Example 84, 4-chloro-7-{3-[(6-fluoronaphthalen-1-yl)oxy]propyl}-2,3-dimethyl-11,12,13,14-tetrahydro-2H,10H-pyrazolo[3′,4′:2,3][1,6]oxazacycloundecino[4,5,6-hi]indole-8-carboxylic Acid—Enantiomer 1], for which the IC50 at MCL-1 came out at 1.9 nM; in the data set on SUDHL5 [1] (setting [6]), 1100 nM; in the data set on HMC-1-8 (72 h), 12000 nM; in the data set with SUDHL10 [4] (setting [9]) it was 1500 nM; with AMO-1 (Homo sapiens, AMO1, 72 h) it was 230 nM; with SUDHL5 [5] (Homo sapiens, SU-DHL-5, 72 h), 1300 nM. Moreover, the results for the EC50 in the data set on SUDHL10 [2] (setting [7]) and in the data set with SUDHL5 [3] (setting [8]) were 1300 nM and 1000 nM, respectively.
With `Cc1c2c(nn1C)CN(C)CCCCn1c(C(=O)O)c(CCCOc3cccc4cc(F)ccc34)c3ccc(Cl)c-2c31` (single isomer, unassigned; enantiomer 2) [Example 32, (−)-4-chloro-7-{3-[(6-fluoronaphthalen-1-yl)oxy]propyl}-2,3,14-trimethyl-10,11,12,13,14,15-hexahydro-2H-pyrazolo[3′,4′:8,9][1,6]diazacycloundecino[10,11,1-hi]indole-8-carboxylic acid-N-ethylethanamine Salt (Enantiomer 2)], the IC50 worked out at 26 nM at MCL-1; 9300 nM in the data set with SUDHL5 [1] (setting [10]); 14000 nM with SUDHL10 [4] (setting [13]); 14000 nM in the data set on MV-4-11 (72 hours); 19600 nM in the data set on AMO-1 (72 hours); 6000 nM with SUDHL5 [5] (72 hours). Also, the values for the EC50 at SUDHL10 [2] (setting [11]) and on SUDHL5 [3] (setting [12]) were 25000 nM and 11000 nM, respectively.
As for `Cc1c2c(nn1CCCN1CCN(C)CC1)COCCCCn1c(C(=O)O)c(CCCOc3cccc4ccccc34)c3ccc(Cl)c-2c31` (single isomer, unassigned; enantiomer 2) [Example 50, (−)-4-chloro-3-methyl-2-[3-(4-methylpiperazin-1-yl)propyl]-7-{3-[(naphthalen-1-yl)oxy]propyl}-2,10,11,12,13,15-hexahydropyrazolo[4′,3′:9,10][1,6]oxazacycloundecino[8,7,6-hi]indole-8-carboxylic Acid (Enantiomer 2)], the IC50 was determined as 15 nM on MCL-1; 8400 nM in the data set with SUDHL5 [1] (setting [10]); 12400 nM in the data set with HMC-1-8 (72 hours); 8600 nM in the data set on SUDHL10 [4] (setting [13]); 13300 nM with AMO-1 (72 hours); 6700 nM in the data set with SUDHL5 [5] (72 hours). Further, the results for the EC50 with SUDHL10 [2] (setting [11]) and with SUDHL5 [3] (setting [12]) were 12000 nM and 13000 nM, respectively.
Turning to `Cc1c2c(nn1C)COCC1CC1Cn1c(C(=O)O)c(CCCOc3cccc4ccccc34)c3ccc(Cl)c-2c31` (single isomer, unassigned; stereoisomer 2) [Example 66, (9aR,10aS or 9aS, 10aR)-3-chloro-4,5-dimethyl-14-{3-[(naphthalen-1-yl)oxy]propyl}-5,7,9a, 10,10a, 11-hexahydro-9H-cyclopropa[3,4]pyrazolo[4′,3′:9,10][1,6]oxazacycloundecino-[8,7,6-hi]indole-13-carboxylic Acid—Stereoisomer 2], the IC50 on MCL-1 was determined as 1.7 nM; in the data set with SUDHL5 [1] (setting [10]) it was 910 nM; in the data set on SUDHL10 [4] (setting [13]), 1400 nM; with AMO-1 (72 hours) it was 1520 nM. Besides, the EC50 in the data set on SUDHL10 [2] (setting [11]) was 3500 nM; in the data set on SUDHL5 [3] (setting [12]), 550 nM.
